Measured values as given in paper PMC9499525, “Tissue-restricted inhibition of mTOR using chemical genetics” (Proceedings of the National Academy of Sciences of the …, 2022).

Biological target: T1, FKBP12 V55G-HA / GST-mTOR FRB domain ternary complex (Homo sapiens, UniProt P42345+P62942, V56G)
T1 construct: recombinant HA-tagged wild-type or V55G mutant FKBP12 with GST-tagged mTOR FRB domain; 8xHis (cleaved yes); made in house; host or cells: E. coli BL21 (DE3) for FKBP12
Test: TR-FRET ternary complex formation, FKBP12 V55G with mTOR FRB
Assay type: binding
Conditions: FKBP12 V55G + mTOR FRB, n = 3, read-out: EC50 of ternary complex induction, FKBP12 V55G
Method: TR-FRET assay was performed using recommended conditions from Cisbio with slight modifications. FKBP12-HA, FKBP12 V55G-HA, and GST-mTORFRB recombinant proteins were each diluted to 5 nM in assay buffer (20 mM HEPES pH 7.5, 150 mM NaCl, 0.05% Tween-20, 0.1% bovine serum albumin [BSA], 0.5 mM dithiothreitol [DTT]). Anti-GST-Tb (Cisbio) and Anti-HA-XL665 (Cisbio) were diluted to 0.625 µg/mL and 5 µg/mL, respectively, in assay buffer. Rapa* compounds and FK506 were diluted to 50 µM and rapamycin to 5 µM in assay buffer containing 5% DMSO, and threefold serial dilution series were made from these solutions. We mixed 4 µL diluted FKBP12-HA protein, 4 µL diluted GST-mTORFRB, and 4 µL of compound or DMSO control in a well of a black low-volume 384-well plate (Corning 4514), and the mixture was incubated at room temperature for 1 h. We then added 4 µL of Anti-GST-Tb, and 4 µL Anti-HA-XL665, and the mixture was incubated at room temperature for an additional 1 h. Time-resolved fluorescence was read on a Tecan Spark 20M plate reader with the following parameters: Lag time: 60 µs; Integration time: 500 µs; Read A: Excitation filter 320 ([25]) nm, Emission filter 610 ([25]) nm, Gain 130; Read B: Excitation filter 320 ([25]) nm, Emission filter 665 ([8]) nm, Gain 165. Three replicates were performed for each assay condition. […]
Human FKBP12 coding sequence was cloned a pET-47b bacterial expression vector using Gibson assembly and a C-terminal HA-tag was added by QuickChange PCR. FKBP12 proteins were expressed as 8xHis fusions in E. coli BL21 (DE3) cells. […] Samples were then purified by size exclusion chromatography, concentrated to 10-20 mg/mL, and snap frozen in liquid nitrogen. pGEX-2T FRB was a gift from Jie Chen (Addgene plasmid #26607). mTOR FRB was expressed as a GST-fusion and purified as previously described (1). […]
PAMPA was performed by Quintara Discovery as described previously (2). Compounds were analyzed at 100 µM in PBS and measured using liquid chromatography-mass spectrometry (LC-MS) after 5 hours. […] Compounds were analyzed at 10 µM and measured by LC-MS after 1 hour.

T1 sequence (P62942 whole entry V56G, the tested form may be a part): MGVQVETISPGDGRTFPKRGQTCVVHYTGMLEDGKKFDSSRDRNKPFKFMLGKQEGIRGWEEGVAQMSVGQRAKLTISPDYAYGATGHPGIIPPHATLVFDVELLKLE
T1 sequence (P42345 2012-2144 limits assumed): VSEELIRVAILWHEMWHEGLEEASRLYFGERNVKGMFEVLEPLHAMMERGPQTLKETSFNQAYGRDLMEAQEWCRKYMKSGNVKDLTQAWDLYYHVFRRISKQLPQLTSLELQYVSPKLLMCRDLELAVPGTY

## CCO/N=C1/C[C@@H]([C@H](C)C[C@@H]2CC[C@@H](O)[C@H](OC)C2)OC(=O)[C@@H]2CCCCN2C(=O)C(=O)[C@]2(O)O[C@@H](CC[C@H]2C)C[C@H](OC)/C(C)=C/C=C/C=C/[C@@H](C)C[C@@H](C)C(=O)[C@H](OC)[C@H](O)/C(C)=C/[C@H]1C [Rapa*-3Z]
  EC50: 11.8 nM
